Reference: patent publication US9993494B2, “Compositions and methods for treating fibrotic disease” (eFFECTOR Therapeutics, Inc., priority 2014, dated 2018)

Tested on: normal human lung fibroblasts
Test: Ribosomal profiling: translational efficiency in TGFβ-treated fibroblasts
Format: cell-based
Conditions: TGFβ-treated fibroblasts
How it was run: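 Cells lysed on ice after a cold PBS wash containing cycloheximide. Ribosome-protected fragments and total mRNA were prepared with the ARTseq kit and sequenced by RNA-Seq. Reads were trimmed, mapped to the human genome and counted uniquely over coding regions per gene, with low-count genes excluded before differential translational-efficiency analysis.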

Cc1ccc(=O)n(-c2ccccc2)c1 [pirfenidone, 5-methyl-1-phenylpyridin-2-one]
renormalizing the translational profile of DNASE1L1 (ENSG00000013563): − (− = <0.9)
renormalizing the translational profile of KITLG (ENSG00000049130): − (− = <0.9)
renormalizing the translational profile of ADAMTS6 (ENSG00000049192): − (− = <0.9)
renormalizing the translational profile of LETMD1 (ENSG00000050426): − (− = <0.9)
renormalizing the translational profile of PLEKHA5 (ENSG00000052126): − (− = <0.9)
renormalizing the translational profile of EIF4B (ENSG00000063046): + (+ = 0.9 to 1.5)
renormalizing the translational profile of RPL18 (ENSG00000063177): + (+ = 0.9 to 1.5)
renormalizing the translational profile of HIPK2 (ENSG00000064393): − (− = <0.9)
renormalizing the translational profile of ASPM (ENSG00000066279): + (+ = 0.9 to 1.5)
renormalizing the translational profile of RASSF1 (ENSG00000068028): − (− = <0.9)
renormalizing the translational profile of PABPC1 (ENSG00000070756): − (− = <0.9)
renormalizing the translational profile of RPL31 (ENSG00000071082): + (+ = 0.9 to 1.5)
renormalizing the translational profile of PLD1 (ENSG00000075651): − (− = <0.9)
renormalizing the translational profile of EDN1 (ENSG00000078401): − (− = <0.9)
renormalizing the translational profile of AURKA (ENSG00000087586): − (− = <0.9)
renormalizing the translational profile of EPB41L1 (ENSG00000088367): − (− = <0.9)
renormalizing the translational profile of RPL6 (ENSG00000089009): − (− = <0.9)
renormalizing the translational profile of P2RX7 (ENSG00000089041): ++ (++ = 1.5 to 2.0)
renormalizing the translational profile of KDM2B (ENSG00000089094): − (− = <0.9)
renormalizing the translational profile of RPLP0 (ENSG00000089157): − (− = <0.9)
renormalizing the translational profile of IGBP1 (ENSG00000089289): − (− = <0.9)
renormalizing the translational profile of IRAK3 (ENSG00000090376): − (− = <0.9)
renormalizing the translational profile of PABPC4 (ENSG00000090621): − (− = <0.9)
renormalizing the translational profile of FMO2 (ENSG00000094963): +++ (+++ = >2.0)
renormalizing the translational profile of ACOT7 (ENSG00000097021): − (− = <0.9)
renormalizing the translational profile of ATP5D (ENSG00000099624): − (− = <0.9)
renormalizing the translational profile of LGALS1 (ENSG00000100097): + (+ = 0.9 to 1.5)
renormalizing the translational profile of EIF3L (ENSG00000100129): − (− = <0.9)
renormalizing the translational profile of RPL3 (ENSG00000100316): + (+ = 0.9 to 1.5)
renormalizing the translational profile of CEP192 (ENSG00000101639): − (− = <0.9)
renormalizing the translational profile of AMMECR1 (ENSG00000101935): − (− = <0.9)
renormalizing the translational profile of PLP2 (ENSG00000102007): − (− = <0.9)
renormalizing the translational profile of EIF3E (ENSG00000104408): − (− = <0.9)
renormalizing the translational profile of EEF1D (ENSG00000104529): − (− = <0.9)
renormalizing the translational profile of C19orf53 (ENSG00000104979): − (− = <0.9)
renormalizing the translational profile of GLTSCR2 (ENSG00000105373): + (+ = 0.9 to 1.5)
renormalizing the translational profile of RAB3D (ENSG00000105514): + (+ = 0.9 to 1.5)
renormalizing the translational profile of RPL18A (ENSG00000105640): + (+ = 0.9 to 1.5)
renormalizing the translational profile of COMP (ENSG00000105664): − (− = <0.9)
renormalizing the translational profile of GLCCI1 (ENSG00000106415): + (+ = 0.9 to 1.5)
renormalizing the translational profile of CORO2A (ENSG00000106789): − (− = <0.9)
renormalizing the translational profile of GDF10 (ENSG00000107623): − (− = <0.9)
renormalizing the translational profile of RPL28 (ENSG00000108107): + (+ = 0.9 to 1.5)
renormalizing the translational profile of RPL19 (ENSG00000108298): − (− = <0.9)
renormalizing the translational profile of RASD1 (ENSG00000108551): − (− = <0.9)
renormalizing the translational profile of NAT9 (ENSG00000109065): − (− = <0.9)
renormalizing the translational profile of RPL34 (ENSG00000109475): + (+ = 0.9 to 1.5)
renormalizing the translational profile of CRYAB (ENSG00000109846): − (− = <0.9)
renormalizing the translational profile of GAPDH (ENSG00000111640): − (− = <0.9)
renormalizing the translational profile of C12orf57 (ENSG00000111678): − (− = <0.9)
renormalizing the translational profile of MDFI (ENSG00000112559): − (− = <0.9)
renormalizing the translational profile of HBEGF (ENSG00000113070): − (− = <0.9)
renormalizing the translational profile of RPL24 (ENSG00000114391): − (− = <0.9)
renormalizing the translational profile of EEF1B2 (ENSG00000114942): − (− = <0.9)
renormalizing the translational profile of IFIH1 (ENSG00000115267): + (+ = 0.9 to 1.5)
renormalizing the translational profile of DPH5 (ENSG00000117543): − (− = <0.9)
renormalizing the translational profile of PPL (ENSG00000118898): − (− = <0.9)
renormalizing the translational profile of PLEKHG1 (ENSG00000120278): − (− = <0.9)
renormalizing the translational profile of LIAS (ENSG00000121897): − (− = <0.9)
renormalizing the translational profile of GPSM2 (ENSG00000121957): − (− = <0.9)
renormalizing the translational profile of RPL21 (ENSG00000122026): + (+ = 0.9 to 1.5)
renormalizing the translational profile of RPL5 (ENSG00000122406): + (+ = 0.9 to 1.5)
renormalizing the translational profile of INHBA (ENSG00000122641): − (− = <0.9)
renormalizing the translational profile of CIT (ENSG00000122966): + (+ = 0.9 to 1.5)
renormalizing the translational profile of RPL23 (ENSG00000125691): + (+ = 0.9 to 1.5)
renormalizing the translational profile of LAMP5 (ENSG00000125869): − (− = <0.9)
renormalizing the translational profile of NECAB3 (ENSG00000125967): − (− = <0.9)
renormalizing the translational profile of COX7C (ENSG00000127184): − (− = <0.9)
renormalizing the translational profile of LIF (ENSG00000128342): − (− = <0.9)
renormalizing the translational profile of MTUS1 (ENSG00000129422): ++ (++ = 1.5 to 2.0)
renormalizing the translational profile of ARHGEF6 (ENSG00000129675): − (− = <0.9)
renormalizing the translational profile of RPL36 (ENSG00000130255): + (+ = 0.9 to 1.5)
renormalizing the translational profile of GDF15 (ENSG00000130513): − (− = <0.9)
renormalizing the translational profile of ASS1 (ENSG00000130707): − (− = <0.9)
renormalizing the translational profile of EIF2S3 (ENSG00000130741): − (− = <0.9)
renormalizing the translational profile of RPL27 (ENSG00000131469): − (− = <0.9)
renormalizing the translational profile of MATN3 (ENSG00000132031): − (− = <0.9)
renormalizing the translational profile of PPARG (ENSG00000132170): +++ (+++ = >2.0)
renormalizing the translational profile of KDM6B (ENSG00000132510): − (− = <0.9)
renormalizing the translational profile of RARRES3 (ENSG00000133321): − (− = <0.9)
renormalizing the translational profile of BIVM (ENSG00000134897): − (− = <0.9)
renormalizing the translational profile of ATP5G2 (ENSG00000135390): + (+ = 0.9 to 1.5)
renormalizing the translational profile of KRT7 (ENSG00000135480): ++ (++ = 1.5 to 2.0)
renormalizing the translational profile of HNRNPA1 (ENSG00000135486): − (− = <0.9)
renormalizing the translational profile of IL6 (ENSG00000136244): − (− = <0.9)
renormalizing the translational profile of RPL35 (ENSG00000136942): − (− = <0.9)
renormalizing the translational profile of NOV (ENSG00000136999): − (− = <0.9)
renormalizing the translational profile of IER3 (ENSG00000137331): − (− = <0.9)
renormalizing the translational profile of DDX60 (ENSG00000137628): − (− = <0.9)
renormalizing the translational profile of RPLP1 (ENSG00000137818): + (+ = 0.9 to 1.5)
renormalizing the translational profile of PAQR5 (ENSG00000137819): − (− = <0.9)
renormalizing the translational profile of AOX1 (ENSG00000138356): − (− = <0.9)
renormalizing the translational profile of FGF5 (ENSG00000138675): + (+ = 0.9 to 1.5)
renormalizing the translational profile of PDE5A (ENSG00000138735): − (− = <0.9)
renormalizing the translational profile of GAS2L3 (ENSG00000139354): − (− = <0.9)
renormalizing the translational profile of DIAPH3 (ENSG00000139734): ++ (++ = 1.5 to 2.0)
renormalizing the translational profile of MYO19 (ENSG00000141140): − (− = <0.9)
renormalizing the translational profile of RPL13A (ENSG00000142541): + (+ = 0.9 to 1.5)
renormalizing the translational profile of RPL11 (ENSG00000142676): − (− = <0.9)
renormalizing the translational profile of ACTA1 (ENSG00000143632): + (+ = 0.9 to 1.5)
renormalizing the translational profile of PLEKHA6 (ENSG00000143850): − (− = <0.9)
renormalizing the translational profile of RPL32 (ENSG00000144713): − (− = <0.9)
renormalizing the translational profile of RPL37 (ENSG00000145592): + (+ = 0.9 to 1.5)
renormalizing the translational profile of BTF3 (ENSG00000145741): − (− = <0.9)
renormalizing the translational profile of HIGD2A (ENSG00000146066): + (+ = 0.9 to 1.5)
renormalizing the translational profile of CREB5 (ENSG00000146592): + (+ = 0.9 to 1.5)
renormalizing the translational profile of DENND2A (ENSG00000146966): − (− = <0.9)
renormalizing the translational profile of RPL10 (ENSG00000147403): + (+ = 0.9 to 1.5)
renormalizing the translational profile of EIF3H (ENSG00000147677): − (− = <0.9)
renormalizing the translational profile of RPL7A (ENSG00000148303): + (+ = 0.9 to 1.5)
renormalizing the translational profile of EIF3M (ENSG00000149100): − (− = <0.9)
renormalizing the translational profile of FAU (ENSG00000149806): − (− = <0.9)
renormalizing the translational profile of CCDC102B (ENSG00000150636): ++ (++ = 1.5 to 2.0)
renormalizing the translational profile of FRMD4A (ENSG00000151474): − (− = <0.9)
renormalizing the translational profile of HOMER1 (ENSG00000152413): − (− = <0.9)
renormalizing the translational profile of PLEKHH2 (ENSG00000152527): − (− = <0.9)
renormalizing the translational profile of ANKH (ENSG00000154122): − (− = <0.9)
renormalizing the translational profile of ABCA6 (ENSG00000154262): − (− = <0.9)
renormalizing the translational profile of OBSCN (ENSG00000154358): − (− = <0.9)
renormalizing the translational profile of ADAMTS5 (ENSG00000154736): − (− = <0.9)
renormalizing the translational profile of OXA1L (ENSG00000155463): − (− = <0.9)
renormalizing the translational profile of C9orf85 (ENSG00000155621): − (− = <0.9)
renormalizing the translational profile of RPL30 (ENSG00000156482): + (+ = 0.9 to 1.5)
renormalizing the translational profile of EEF1A1 (ENSG00000156508): + (+ = 0.9 to 1.5)
renormalizing the translational profile of NRG1 (ENSG00000157168): − (− = <0.9)
renormalizing the translational profile of ADAMTS4 (ENSG00000158859): − (− = <0.9)
renormalizing the translational profile of RPL8 (ENSG00000161016): − (− = <0.9)
renormalizing the translational profile of RPL26 (ENSG00000161970): + (+ = 0.9 to 1.5)
renormalizing the translational profile of RPL29 (ENSG00000162244): − (− = <0.9)
renormalizing the translational profile of CAMK2N1 (ENSG00000162545): − (− = <0.9)
renormalizing the translational profile of IGFBP7 (ENSG00000163453): − (− = <0.9)
renormalizing the translational profile of RPL22L1 (ENSG00000163584): + (+ = 0.9 to 1.5)
